# Key:
# [1] = target: T1, wild type PKR (Homo sapiens, UniProt P30613); assay: PKR mutant assay (AC50), wild type PKR; format: biochemical; conditions: wild type PKR enzyme; read-out: PKR WT AC50
# Method: (§1) Example 11. PKR Mutant Assay
# (§2) PKR or PKR mutant enzyme solution was diluted into a reaction mix, which contains 1× buffer (100 mM KCl, 50 mM Tris pH 7.5, 5 mM MgCl2) as well as PEP (cont depends on enzyme), 180 μM NADH, 0.5 units LDH, 1 mM DTT, 0.03% BSA; final assay concentrations after 1.11 fold dilution are indicated.
# (§3) 2 μL of test compound was added into wells first, and then 180 μL reaction mix was added.
# (§4) Reactions mixture with test compound was assembled except for ADP, and plates were stored for 60 minutes at room temperature.
# (§5) 20 uL ADP was added to start reaction at room temperature and reaction progress was measured as changes in absorbance at 340 nm wavelength at room temperature.
# (§6) Test Compound Preparation:
# (§7) Test compound stock was made at 100× concentration in 100% DMSO (10 mM)
# (§8) 1 to 3 dilutions were made for 11 points (i.e. 50 μl of first concentration added to 100 μl 100% DMSO to yield 3.33 mM, 50 μl of this added to 100 μl DMSO to yield 1.11 mM, and so forth) • 1 to 100 dilution into assay (2 μl in 200 μl) yielded starting concentration of 100 μM, decreasing 3 fold for 11 points.
# (§9) Assay Buffer: 100 mM KCl, 50 mM Tris 7.5, 5 mM MgCl2, 1 ruM DTT, 0.03% BSA
# (§10) Reaction Mixture: PKR mutant enzyme: 40-400 ng/well; ADP: 0.2-1.65 mM; PEP: 0.1-0.5 mM; NADH:180 μM; LDH: 0.5 units (Sigma #59023); DTT: 1 mM; BSA: 0.03%.
# [2] = target: PKR R510Q (Homo sapiens, UniProt P30613, R510Q); assay: PKR mutant assay (AC50), PKR R510Q; format: biochemical; conditions: PKR R510Q mutant enzyme; read-out: PK R510Q AC50
# Chain of PKR R510Q (P30613 whole entry R510Q): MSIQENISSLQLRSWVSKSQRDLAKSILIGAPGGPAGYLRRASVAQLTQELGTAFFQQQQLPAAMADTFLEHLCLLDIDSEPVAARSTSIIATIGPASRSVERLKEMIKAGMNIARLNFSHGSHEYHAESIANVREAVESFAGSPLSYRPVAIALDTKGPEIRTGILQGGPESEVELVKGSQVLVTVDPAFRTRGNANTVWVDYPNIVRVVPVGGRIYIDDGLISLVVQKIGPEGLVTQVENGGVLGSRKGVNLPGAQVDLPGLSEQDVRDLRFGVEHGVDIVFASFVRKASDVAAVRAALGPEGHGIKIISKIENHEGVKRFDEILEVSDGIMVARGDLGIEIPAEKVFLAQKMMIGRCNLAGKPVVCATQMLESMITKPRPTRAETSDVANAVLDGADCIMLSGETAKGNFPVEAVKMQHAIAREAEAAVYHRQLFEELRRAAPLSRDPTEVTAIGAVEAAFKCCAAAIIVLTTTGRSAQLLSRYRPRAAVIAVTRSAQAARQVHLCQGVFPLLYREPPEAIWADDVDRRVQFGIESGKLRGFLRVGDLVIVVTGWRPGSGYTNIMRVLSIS
# Method: as §1, §2, §3, §4, §5, §6, §7, §8, §9, §10
# [3] = target: T1, wild type PKR; assay: Cell based ATP assay in purified red blood cells; design: endogenous in cells; host or cells: purified red blood cells from blood of healthy volunteers; conditions: RBCs, overnight at 37° C., ATP levels by Cell-Titer-Glo
# Method: Example 16. Red Blood Cell (RBC) Purification
# Fresh blood drawn from healthy volunteers into K2EDTA tubes was collected. Whole blood was pelleted by spinning at 500 g for 10 minutes. Cut transfusion bag port off of Purecell leukocyte reduction neofilter (Fisher NCO267633) one (1) inch above filter. Attach a 10 ml syringe barrel to the remaining cut tubing attached to neofilter. The plasma layer was removed from the pellet of the whole blood and the pellet was resuspended in 2× volume of phosphate buffered saline (PBS). Transfer 9 ml re-suspended blood cell pellet to prepared 10 ml syringe that is attached to the neofilter. Allow whole blood to gravity flow through filter until all fluid runs through upper tubing into filter disc. Add plunger to the syringe, remove syringe from clamp and invert the filter, then plunge air through the syringe filter system. Using a new 5 ml syringe, remove filtered RBCs from the bag by the syringe port and transfer purified RBCs to a 5 ml snap cap tube that has been incubated on ice. Spin 5 ml snap cap tube at 500 g for 10 minutes at 15 C, aspirate supernatant and resuspend in AGAM (1×PBS, 1% glucose, 170 mg/L adenine, 5.25 g/L mannitol) at a density of 4×10^9 cells/mL.
# Example 17. Cell Based ATP Assay
# For cell based ATP assays, the compound as described herein was prepared in 100% DMSO as a 10 mM stock. Serial dilutions (1:4) were performed in 96-well V-bottom storage plate and then added 1:100 to 96-well V-bottom plates containing AGAM. RBCs were diluted in AGAM media to a density of 1×10^7 cells/mL before added 90 μL/well to black clear bottom assay plates (final compound concentration at 0.1% DMSO concentration). Assay plates were sealed using aluminum foil seals and incubated overnight at 37° C. in a humidified chamber. ATP levels were read out using Cell-Titer-Glo (Promega).
# [4] = target: PKR K410E (Homo sapiens, UniProt P30613, K410E); assay: PKR mutant assay (AC50), PKR K410E; format: biochemical; conditions: PKR K410E mutant enzyme
# Chain of PKR K410E (P30613 whole entry K410E): as the sequence (P30613 whole entry R510Q) above, with K410E, Q510R counted along it
# Method: as §1, §2, §3, §4, §5, §6, §7, §8, §9, §10
# T1 sequence (P30613 whole entry): as the sequence (P30613 whole entry R510Q) above, with Q510R counted along it
AC50 [1] [nM],AC50 [2] [nM],AC50 [3] [nM],AC50 [4] [nM],Structure (SMILES)
< 300,< 300,≤ 1000,< 300,Cn1c2nc(Cc3cc[nH]n3)sc2c2cnn(Cc3cccc(N)n3)c(=O)c21
< 300,< 300,≤ 1000,< 300,Cn1c2nc(Cc3cc[nH]n3)sc2c2cnn(Cc3csc(N)n3)c(=O)c21
< 300,< 300,≤ 1000,< 300,Cn1c2nc(Cc3cc[nH]n3)sc2c2cnn(Cc3nccs3)c(=O)c21
< 300,< 300,≤ 1000,< 300,Cn1c2nc(Cc3cc[nH]n3)sc2c2cnn(Cc3ncsc3Br)c(=O)c21
< 300,< 300,≤ 1000,< 300,Cn1c2nc(Cc3n[nH]cc3F)sc2c2cnn(Cc3cc[nH]n3)c(=O)c21
< 300,< 300,≤ 1000,< 300,Cc1ccc(Cn2ncc3c4sc(Cc5cc[nH]n5)nc4n(C)c3c2=O)nc1Cl
< 300,< 300,≤ 1000,< 300,Cn1c2nc(Cc3cc[nH]n3)sc2c2cnn(Cc3cc(F)[nH]n3)c(=O)c21
< 300,< 300,≤ 1000,< 300,COc1scnc1Cn1ncc2c3sc(Cc4cc[nH]n4)nc3n(C)c2c1=O
< 300,< 300,≤ 1000,< 300,Cc1scnc1Cc1nc2c(s1)c1cnn(Cc3c[nH]nn3)c(=O)c1n2C
301 to 800,> 800,> 1000,301 to 800,Cn1c2nc(Cc3cc[nH]n3)sc2c2cnn(Cc3cc(C(N)=O)[nH]n3)c(=O)c21
< 300,< 300,≤ 1000,< 300,Cn1c2nc(Cc3ncsc3F)sc2c2cnn(Cc3cc[nH]n3)c(=O)c21
< 300,< 300,≤ 1000,< 300,Cn1cc(Cn2ncc3c4sc(Cc5cc[nH]n5)nc4n(C)c3c2=O)nn1
< 300,< 300,≤ 1000,< 300,Cn1c2nc(Cc3cc[nH]n3)sc2c2cnn(Cc3ccc(F)c(N)n3)c(=O)c21
< 300,< 300,≤ 1000,< 300,Cn1ccc(Cn2ncc3c4sc(Cc5n[nH]cc5F)nc4n(C)c3c2=O)n1
< 300,< 300,≤ 1000,< 300,Cn1c2nc(Cc3nc(N)sc3F)sc2c2cnn(Cc3c[nH]nn3)c(=O)c21
< 300,< 300,≤ 1000,< 300,Cn1c2nc(Cc3ncsc3F)sc2c2cnn(Cc3c[nH]nn3)c(=O)c21
> 800,> 800,> 1000,> 800,CCOC(c1cscn1)c1nc2c(s1)c1cnn(Cc3c[nH]nn3)c(=O)c1n2C (stereo not drawn)
< 300,< 300,≤ 1000,< 300,Cn1c2nc(Cc3cc[nH]n3)sc2c2cnn(Cc3cccnc3)c(=O)c21
< 300,< 300,≤ 1000,< 300,Cn1c2nc(Cc3cc[nH]n3)sc2c2cnn(Cc3ccccn3)c(=O)c21
< 300,< 300,≤ 1000,< 300,Cn1c2nc(Cc3cc[nH]n3)sc2c2cnn(Cc3ccncc3)c(=O)c21
< 300,< 300,≤ 1000,< 300,Cn1c2nc(Cc3cc[nH]n3)sc2c2cnn(Cc3ccc(=O)[nH]c3)c(=O)c21

AC50 [1] [nM],AC50 [2] [nM],AC50 [3] [nM],AC50 [4] [nM],Structure (SMILES)
< 300,301 to 800,≤ 1000,< 300,Cn1c2nc(Cc3cc[nH]n3)sc2c2cnn(Cc3cc[nH]c(=O)c3)c(=O)c21
< 300,< 300,≤ 1000,< 300,Cn1ccc(Cc2nc3c(s2)c2cnn(Cc4c[nH]nn4)c(=O)c2n3C)n1
< 300,< 300,≤ 1000,< 300,Cn1ccc(Cc2nc3c(s2)c2cnn(Cc4ccn(C)n4)c(=O)c2n3C)n1
< 300,< 300,≤ 1000,< 300,Cn1c2nc(Cn3cc[nH]c3=O)sc2c2cnn(Cc3cc[nH]n3)c(=O)c21
< 300,< 300,≤ 1000,< 300,Cn1c2nc(Cc3cc[nH]n3)sc2c2cnn(Cc3ccc[nH]c3=O)c(=O)c21
< 300,< 300,≤ 1000,< 300,COc1ncccc1Cn1ncc2c3sc(Cc4cc[nH]n4)nc3n(C)c2c1=O
> 800,< 300,> 1000,> 800,CC(=O)Nc1ccc(F)c(Cn2ncc3c4sc(Cc5cc[nH]n5)nc4n(C)c3c2=O)n1
< 300,< 300,≤ 1000,< 300,COc1ccc(Cn2ncc3c4sc(Cc5cc[nH]n5)nc4n(C)c3c2=O)cn1
< 300,< 300,≤ 1000,< 300,COc1cc(Cn2ncc3c4sc(Cc5cc[nH]n5)nc4n(C)c3c2=O)ccn1
< 300,< 300,≤ 1000,< 300,CNc1ccc(F)c(Cn2ncc3c4sc(Cc5cc[nH]n5)nc4n(C)c3c2=O)n1
< 300,< 300,≤ 1000,< 300,CNc1ccc(F)c(Cc2nc3c(s2)c2cnn(Cc4c[nH]nn4)c(=O)c2n3C)n1
< 300,< 300,≤ 1000,< 300,Cn1c2nc(Cc3n[nH]cc3F)sc2c2cnn(Cc3n[nH]cc3F)c(=O)c21
< 300,< 300,≤ 1000,< 300,COc1cccc(Cn2ncc3c4sc(Cc5cc[nH]n5)nc4n(C)c3c2=O)n1
< 300,< 300,≤ 1000,< 300,Cn1c2nc(Cc3cc[nH]n3)sc2c2cnn(Cc3cccc(NO)n3)c(=O)c21
< 300,< 300,≤ 1000,< 300,Cn1c2nc(Cc3cc[nH]n3)sc2c2cnn(Cc3cc(F)cc(N)n3)c(=O)c21
< 300,< 300,≤ 1000,< 300,Cc1ccc(Cn2ncc3c4sc(Cc5cc[nH]n5)nc4n(C)c3c2=O)nc1N
< 300,301 to 800,≤ 1000,< 300,Cn1c2nc(Cc3ccccn3)sc2c2cnn(Cc3ccccn3)c(=O)c21
< 300,301 to 800,> 1000,< 300,Cn1c2nc(Cc3cc[nH]n3)sc2c2cnn(Cc3cccc(=O)[nH]3)c(=O)c21
< 300,< 300,≤ 1000,< 300,Cn1c2nc(Cc3n[nH]cc3F)sc2c2cnn(Cc3c[nH]nn3)c(=O)c21
< 300,< 300,≤ 1000,< 300,Cn1c2nc(Cn3ccc(N)n3)sc2c2cnn(Cc3cc[nH]n3)c(=O)c21
< 300,< 300,≤ 1000,< 300,Cn1cc(F)c(Cn2ncc3c4sc(Cc5cc[nH]n5)nc4n(C)c3c2=O)n1

# Source: patent US11040036B2, “Pyruvate kinase activators for use in treating blood disorders” (Agios Pharmaceuticals, Inc., priority 2017, dated 2021)
